Source: patent publication US20120329709A1, “PRODUCTION OF GLYCOPROTEINS” (priority 2009, published 2012)

Columns and labels:
CHO cells [1] = assay: LC-MS analysis of glycans from CTLA4Ig produced by CHO cells in the presence of elevated uridine; assay type: cell-based, Chinese hamster; settings: CTLA4Ig from uridine-supplemented CHO cells, compared to the untreated control
Excerpt: FIG. 1 is a depiction of the levels of glycans from recombinant fusion protein CTLA4-IgG produced in the presence of elevated uridine. Data are expressed as the ratio of the amount of the indicated glycan from control conditions to the amount of the same glycan produced in the presence of elevated uridine. Values are the average +/−SD of duplicate determinants. A value greater than one indicates the species is in greater abundance under the control conditions.
Chinese hamster ovary (CHO) cells were supplemented with the nucleoside uridine. Cells were harvested, and snap frozen, while culture supernatant was harvested and CTLA4Ig harvested by protein A purification for subsequent analysis. Cells were then subjected to nucleotide sugar extraction using standard methods. In short, this was performed with chloroform:methanol:water (2:4:1), the pellets discarded, and the resulting extraction dried down. The dried material was subsequently resuspended in 500 ul of 10% butanol in water and then extracted with 1 ml of 90% butanol in water. […] For quantification, sugar-nucletides were resolved with RP chromatography.
Protein product was deglycosylated with PNGase F for 18 hours and the resulting glycans isolated with PGC chromatography. […] Resulting MS peak areas were quantified and for each glycan the ratio of the control vs. the uridine treated samples was determined.

CHO cells [2] = assay: Intracellular sugar-nucleotide levels from CHO cells cultured with Uridine supplementation; assay type: cell-based, Chinese hamster; parameters: CMP-NeuAc, average increase in sugar-nucloetide above no supplemented cells / UDP-Gal, average increase in sugar-nucloetide above no supplemented cells / UDP-Glc, average increase in sugar-nucloetide above no supplemented cells / UDP-GlcNAc, average increase in sugar-nucloetide above no supplemented cells / GDP-Man, average increase in sugar-nucloetide above no supplemented cells: unit not given here; settings: for CMP-NeuAc, average increase in sugar-nucloetide above no supplemented cells / GDP-Fuc, average increase in sugar-nucloetide above no supplemented cells / GDP-Man, average increase in sugar-nucloetide above no supplemented cells / UDP-Gal, average increase in sugar-nucloetide above no supplemented cells / UDP-Glc, average increase in sugar-nucloetide above no supplemented cells / UDP-GlcNAc, average increase in sugar-nucloetide above no supplemented cells: intracellular, CHO cells
Procedure: Chinese hamster ovary (CHO) cells were supplemented with the nucleoside uridine. Cells were harvested, and snap frozen, while culture supernatant was harvested and CTLA4Ig harvested by protein A purification for subsequent analysis. Cells were then subjected to nucleotide sugar extraction using standard methods. In short, this was performed with chloroform:methanol:water (2:4:1), the pellets discarded, and the resulting extraction dried down. The dried material was subsequently resuspended in 500 ul of 10% butanol in water and then extracted with 1 ml of 90% butanol in water. The butanol phase was discarded and the acqueous subjected to a second butanol extraction. The final aqueous phase was dried down and the sugar nucleotides further isolated by PGC chromatography eluting off with 25% acetonitrile (v/v) containing 50 mM triethylammonium acetate. For quantification, sugar-nucletides were resolved with RP chromatography.

## O=c1ccn([C@@H]2O[C@H](CO)[C@@H](O)[C@H]2O)c(=O)[nH]1 [Uridine, uridine]
CHO cells [1]
  level of the monogalactosylated species on the protein product: rises
CHO cells [2]; CHO cells supplemented with uridine
  levels of the uridine sugars including UDP-Gal and UDP-GlcNAc: increased significantly
CHO cells [2]; Uridine 2 x
  CMP-NeuAc, average increase in sugar-nucloetide above no supplemented cells: 32.13
  GDP-Fuc, average increase in sugar-nucloetide above no supplemented cells: 6.5
  GDP-Man, average increase in sugar-nucloetide above no supplemented cells: 6.06
  UDP-Gal, average increase in sugar-nucloetide above no supplemented cells: 168.97
  UDP-Glc, average increase in sugar-nucloetide above no supplemented cells: 409.16
  UDP-GlcNAc, average increase in sugar-nucloetide above no supplemented cells: 402.7
CHO cells [2]; Uridine 10 x
  CMP-NeuAc, average increase in sugar-nucloetide above no supplemented cells: 50.52
  GDP-Fuc, average increase in sugar-nucloetide above no supplemented cells: 8.98
  GDP-Man, average increase in sugar-nucloetide above no supplemented cells: 12.45
  UDP-Gal, average increase in sugar-nucloetide above no supplemented cells: 389.06
  UDP-Glc, average increase in sugar-nucloetide above no supplemented cells: 1261.96
  UDP-GlcNAc, average increase in sugar-nucloetide above no supplemented cells: 2280.49
